Like-named read-outs stand apart in the source and are kept apart here.
Key:
TNF-α = experiment: Cytokine production in supernatant of infected macrophages (ELISA), TNF-α; format: cell-based, murine; conditions: supernatant of RAW 264.7 macrophages infected with L. (V.) braziliensis
Excerpt: To assess the production of cytokines TNF-α and IL-12 (associated with Th1 response), as well as IL-10 and IL-6 (associated with Th2 response), in the supernatants of the macrophage infection assay, the sandwich enzyme-linked immunosorbent assay (ELISA) method was employed, following the manufacturer’s instructions (eBioscience^TM, San Diego, CA, USA). Initially, capture antibodies specific to TNF-α, IL-6, IL-10, and IL-12 were sensitized in ELISA plates (NUNC-ImmunoTM, Sigma-Aldrich, St. Louis, MO, USA). The plates were incubated at 4 °C for 18 h. After the incubation period, all wells were washed with a solution containing 0.05% PBS and Tween 20 (Sigma-Aldrich, St. Louis, MO, USA). A blocking solution containing 10% FBS in PBS was added to the wells and incubated for 1 h. Subsequently, the wells were washed again. The supernatant obtained from the macrophage infection assay was added to the respective wells. Known concentrations of recombinant cytokines (TNF-α, IL-10, IL-6, and IL-12) were also added to the plate in parallel, covering a range from high to low concentrations. The plates were maintained at 4 °C for another 18 h. Following this incubation, additional washes were performed. The detector complex, consisting of biotinylated detection antibodies, was added to the wells. The plates were incubated for an additional hour. After another round of washing, the enzymatic complex avidin-peroxidase was added to each well. The plates were incubated for 30 min at room temperature. The reaction was initiated by adding a substrate solution containing tetramethylbenzidine and hydrogen peroxide. This reaction was allowed to proceed for 15 min. To stop the reaction, 1N sulfuric acid was added to each well. The absorbance was measured in a plate reader at a wavelength of 450 nm. The concentration of cytokines (TNF-α, IL-10, IL-6, and IL-12) in the supernatants was determined by interpolation from the standard curve.

[1] = system: L. (V.) braziliensis promastigotes; experiment: Antileishmanial activity on promastigotes (MTT, 72 h); format: cell-based, Leishmania (Viannia) braziliensis
Protocol: Leishmania (Viannia) braziliensis (MHOM/BR/1975/M2903) was utilized in this study. The promastigote forms of these parasites were maintained in vitro in Schneider’s insect medium pH 7.2, supplemented with 20% fetal bovine serum (FBS) and 1% antibiotic solution (100 U/mL penicillin and 100 μg/mL streptomycin) at a temperature of 26 ± 1 °C in a Biochemical Oxygen Demand (BOD) incubator (Eletrolab EL202, São Paulo, Brazil), with regular aeration and weekly subculturing.
Assessment of antileishmanial activity against promastigote and amastigote axenic forms of parasites followed the method described by Rodrigues et al. and involved the following steps: L. (V.) braziliensis parasites were cultured in 96-well plates at a concentration of 1 × 10^6 parasites per well. Each well contained 100 μL of supplemented Schneider medium. Serial concentrations of the test substances, ranging from 50 to 1.56 μmol/L, were prepared. Reference drugs, meglumine antimoniate (20 to 40,000 μmol/L) and amphotericin B (0.031 to 2 μmol/L) were also prepared. These concentrations were used to assess the effects of the test substances in comparison to reference drugs. The plates were incubated in a BOD incubator at 26 °C for 72 h. After the 72 h incubation period, 10 μL of MTT (5 mg/mL) was added to each well. The plates were then incubated for an additional 4 h. At the end of the 4 h incubation, formazan crystals formed by the reduction of the MTT salt were solubilized by adding 50 μL of a 10% (w/v) sodium dodecyl sulfate (SDS) solution in distilled water. Absorbance was measured using a microplate reader at a wavelength of 540 nm (Biosystems ELx800 model, Curitiba, PR, Brazil). This measurement quantified the metabolic activity of the parasites, which is indicative of their viability and proliferation. Schneider medium containing 0.2% DMSO was used as a negative control in the tests.
(§1) The different mean concentrations for promastigotes (IC50) and macrophages (CC50) were calculated using nonlinear regression. For comparisons between groups, ANOVA analysis of variance was performed followed by Tukey’s test in a statistical program, taking the p-value < 0.05 as the maximum level of statistical significance.

[2] = system: L. (L.) amazonensis promastigotes; design: method as in PMID 30913526; conditions: read-out: IC50 antipromastigote activity; cited from earlier work
[3] = Cytotoxicity against RAW 264.7 macrophages (MTT); format: cell-based, murine; conditions: mouse, RAW 264.7 macrophages, pH 7.2, RAW 264.7 cells
Protocol: Murine macrophage cell line RAW 264.7 was used in this study. The cells were cultured in 75 cm^2 cell culture flasks (Corning Glass Workers, New York, NY, USA) using DMEM medium with a pH of 7.2, supplemented with 10% FBS and 1% antibiotic solution (containing 100 U/mL penicillin and 100 μg/mL streptomycin). The cells were maintained in an incubator at a temperature of 37 °C with 5% CO2. The spikes were performed after the cells reached complete confluence, characterized by the formation of a monolayer of cells around 48 h to 72 h after packaging.
In this study, we utilized the RAW 264.7 macrophages line (obtained from ATCC: code TIB-71™),human embryonic kidney cell line HEK-293 (obtained from ATCC: code CRL-1573™)and two human cancer cell cultures: the colon carcinoma cell line CaCo-2 and the adenocarcinomic human alveolar basal epithelial cell A549 (also obtained from ATCC: codesHTB-37™ and CCL-185™).These cell lines were cultured in Dulbecco’s modified Eagle medium (DMEM) from Gibco by Life Technologies (LifeTech Austria, Vienna, Austria). The growth medium was supplemented with 5% fetal bovine serum (FBS) from Gibco by Life Technologies and 1% penicillin-streptomycin obtained from Sigma-Aldrich (Vienna, Austria). The cells were maintained at 37 °C with 5% CO2 in a humidified incubator, and regular checks for mycoplasma contamination were carried out.
For experimental purposes, the cells were seeded into 96-well plates at a density of 2 × 10^4 cells/mL, with each well containing 100 µL of the cell suspension. The cells were allowed to adhere for 24 h. Subsequently, they were exposed to 100 µL of the test compounds, which were diluted in DMEM, with concentrations ranging from 2 to 600 µmol/L. The stock solutions of these compounds were prepared in water with 10% (v/v) dimethyl sulfoxide (DMSO) and stored at 4 °C.
To assess cell viability after 72 h of exposure to the compounds, we employed a 3-(4,5-dimethylthiazol-2-yl)-2,5-diphenyltetrazolium bromide (MTT)-based vitality assay kit (EZ4U, Biomedica, Vienna, Austria). Briefly, we added 20 µL of the EZ4U assay solution to each well and incubated the plates in the dark for 2 h. Subsequently, we measured the absorbance using a microplate reader at 450 nm, with 620 nm as a reference to reduce unspecific background values. For reliability, all experiments were conducted three times with triplicate samples.
as §1

Structure (SMILES)	TNF-α level (TNF-α)	IC50 [1] [µM]	IC50 ([1]; Leishmania braziliensis) [µM]	IC50 [2] [µM]	CC50 at 72 h [3] [µM]
O=C(/N=C(/NCc1ccccc1)Nc1ccc([N+](=O)[O-])cc1)c1ccccc1 [LQOF-G1, (Z)-N-benzoyl-N-benzyl-N-(4-nitrophenyl)guanidine]	increased	4.6 ± 0.5	4.62	11.5	147 ± 2
O=C(/N=C(/NCc1ccccc1)Nc1ccc(Br)cc1)c1ccccc1 [LQOF-G2, (Z)-N-benzoyl-N-benzyl-N-(4-bromophenyl)guanidine]	increased		5.4 ± 0.8	19.6	164 ± 2.9
CC(C)(C)c1ccc(N/C(=N\C(=O)c2ccccc2)NCc2ccccc2)cc1 [LQOF-G6, (Z)-N-benzoyl-N-benzyl-N-(4-tert-butylphenyl)guanidine]	increased		5.9 ± 0.9	25.9	154 ± 2.3
O=C(/N=C(/NCc1ccccc1)Nc1ccc(I)cc1)c1ccccc1 [LQOF-G7, (Z)-N-benzoyl-N-benzyl-N-(4-iodophenyl)guanidine]			7.2 ± 0.6	15.9	183 ± 3.1
O=C(/N=C(/NCc1ccc(Cl)cc1Cl)Nc1ccc(Br)cc1)c1ccccc1 [LQOF-G32, (Z)-N-benzoyl-N-(2,4-di-chlorobenzyl)-N-(4-bromophenyl)guanidine]			17.2 ± 1		275.9 ± 2.4

From publication PMC10813298, “Evidence of Guanidines Potential against Leishmania (Viannia) braziliensis: Exploring In Vitro Effectiveness, Toxicities and of Innate Immunity Response Effects” (Biomolecules, 2023)
